The text below walks through data of ChEMBL document CHEMBL5126575, “Synthesis of a new series of quinoline/pyridine indole-3-sulfonamide hybrids as selective carbonic anhydrase IX inhibitors” (Bioorg Med Chem Lett, 2022).

One experiment addresses Carbonic anhydrase 1 (Homo sapiens, UniProt P00915). The experiment in a line: Inhibition of human carbonic anhydrase 1 by stopped flow CO2 assay.
The target in the next experiment is Carbonic anhydrase 2 (Homo sapiens, UniProt P00918). Description: Inhibition of human carbonic anhydrase 2 by stopped flow CO2 assay.
The target in another experiment is Carbonic anhydrase 9 (Homo sapiens, UniProt Q16790). The experiment in a line: Inhibition of human carbonic anhydrase 9 by stopped flow CO2 assay.
For another experiment, the target named is Carbonic anhydrase 12 (Homo sapiens, UniProt O43570).
Carbonic anhydrase 12, sequence (O43570 whole entry): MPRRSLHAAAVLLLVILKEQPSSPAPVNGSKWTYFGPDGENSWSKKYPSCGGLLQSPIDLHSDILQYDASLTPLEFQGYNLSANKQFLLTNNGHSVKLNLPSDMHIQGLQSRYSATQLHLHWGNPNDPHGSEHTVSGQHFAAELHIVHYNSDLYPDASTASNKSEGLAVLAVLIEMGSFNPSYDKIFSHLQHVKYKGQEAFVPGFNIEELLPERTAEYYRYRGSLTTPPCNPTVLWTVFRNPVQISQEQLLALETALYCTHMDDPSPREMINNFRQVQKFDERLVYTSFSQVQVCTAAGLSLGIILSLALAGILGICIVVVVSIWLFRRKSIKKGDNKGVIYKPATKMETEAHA

Carbonic anhydrase 1, sequence (P00915 whole entry): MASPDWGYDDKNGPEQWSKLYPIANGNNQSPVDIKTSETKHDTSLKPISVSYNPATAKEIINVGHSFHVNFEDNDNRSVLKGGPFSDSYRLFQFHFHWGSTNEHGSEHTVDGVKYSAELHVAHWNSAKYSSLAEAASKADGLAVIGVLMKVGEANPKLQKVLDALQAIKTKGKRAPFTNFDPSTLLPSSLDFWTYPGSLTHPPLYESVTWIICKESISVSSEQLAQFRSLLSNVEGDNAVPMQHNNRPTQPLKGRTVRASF
Description for Carbonic anhydrase 12: Inhibition of human carbonic anhydrase 12 by stopped flow CO2 assay

Take `Cn1cc(S(N)(=O)=O)c2cc(NC(=O)c3cc(-c4ccccc4)nc4ccccc34)ccc21`: the Ki on Carbonic anhydrase 1 was more than 100 µM; at Carbonic anhydrase 2, more than 100 µM; at Carbonic anhydrase 9, 82.4 µM; on Carbonic anhydrase 12, more than 100 µM.
As to `CCn1cc(S(N)(=O)=O)c2cc(NC(=O)c3ccnc(N)c3)ccc21`, the Ki is more than 100 µM at Carbonic anhydrase 1, more than 100 µM at Carbonic anhydrase 2, 19.8 µM at Carbonic anhydrase 9 and more than 100 µM at Carbonic anhydrase 12.
In the case of `Cn1cc(S(N)(=O)=O)c2cc(NC(=O)c3cc(-c4ccc(Cl)cc4)nc4ccccc34)ccc21`, the Ki is more than 100 µM at Carbonic anhydrase 1, 18.5 µM at Carbonic anhydrase 9 and more than 100 µM at Carbonic anhydrase 12.
On to `Cn1cc(S(N)(=O)=O)c2cc(NC(=O)c3ccnc(Br)c3)ccc21`, for which the Ki was more than 100 µM on Carbonic anhydrase 1, more than 100 µM on Carbonic anhydrase 2 and 8.16 µM on Carbonic anhydrase 9.
For `COc1ccc2nc(-c3ccccc3OC)cc(C(=O)Nc3ccc4c(c3)c(S(N)(=O)=O)cn4C)c2c1`, the Ki at Carbonic anhydrase 1 is more than 100 µM; on Carbonic anhydrase 2, more than 100 µM; at Carbonic anhydrase 9, 38.9 µM; on Carbonic anhydrase 12 it was more than 100 µM.
Take `CCn1cc(S(N)(=O)=O)c2cc(NC(=O)c3cc(-c4ccccc4)nc4ccccc34)ccc21`: the Ki at Carbonic anhydrase 1, on Carbonic anhydrase 2, at Carbonic anhydrase 9 and at Carbonic anhydrase 12 was more than 100 µM each time.
With `CCn1cc(S(N)(=O)=O)c2cc(NC(=O)c3cc(-c4ccccc4Cl)nc4ccccc34)ccc21`, the Ki on Carbonic anhydrase 1 is more than 100 µM; at Carbonic anhydrase 9, 1.57 µM.
In the case of `CCn1cc(S(N)(=O)=O)c2cc(NC(=O)c3cc(-c4ccc(Cl)cc4)nc4ccccc34)ccc21`, the Ki at Carbonic anhydrase 1 is more than 100 µM; at Carbonic anhydrase 9 it was 5.56 µM.
Turning to `Cn1cc(S(N)(=O)=O)c2cc(NC(=O)c3ccnc(N)c3)ccc21`, the Ki on Carbonic anhydrase 1 is more than 100 µM; on Carbonic anhydrase 2 it was more than 100 µM; on Carbonic anhydrase 9 it was 34.6 µM; on Carbonic anhydrase 12, more than 100 µM.
Turning to `CCn1cc(S(N)(=O)=O)c2cc(NC(=O)c3cc(-c4ccccc4)nc4ccc(OC)cc34)ccc21`, the Ki on Carbonic anhydrase 1 is more than 100 µM; at Carbonic anhydrase 2 it was more than 100 µM; on Carbonic anhydrase 9 it was 40.2 µM; on Carbonic anhydrase 12, more than 100 µM.
With `CCn1cc(S(N)(=O)=O)c2cc(NC(=O)c3cc(-c4ccc(OC)c(OC)c4)nc4ccccc34)ccc21`, the Ki on Carbonic anhydrase 1 is more than 100 µM; on Carbonic anhydrase 2 it was more than 100 µM; on Carbonic anhydrase 9, 35.8 µM; on Carbonic anhydrase 12, more than 100 µM.
Turning to `CCn1cc(S(N)(=O)=O)c2cc(NC(=O)c3ccnc(O)c3)ccc21`, the Ki is more than 100 µM on Carbonic anhydrase 1, more than 100 µM at Carbonic anhydrase 2 and 5.33 µM at Carbonic anhydrase 9.
For `CCn1cc(S(N)(=O)=O)c2cc(NC(=O)c3ccnc(Cl)c3)ccc21`, the inhibitory constant (Ki) on Carbonic anhydrase 1 is more than 100 µM; on Carbonic anhydrase 9, 5.93 µM.
In the case of `Cn1cc(S(N)(=O)=O)c2cc(NC(=O)c3cc(Cl)nc(Br)c3)ccc21`, the Ki was more than 100 µM at Carbonic anhydrase 1, more than 100 µM at Carbonic anhydrase 2, 15.9 µM on Carbonic anhydrase 9 and more than 100 µM on Carbonic anhydrase 12.
In the case of `COc1ccc2nc(-c3ccccc3)cc(C(=O)Nc3ccc4c(c3)c(S(N)(=O)=O)cn4C)c2c1`, the Ki on Carbonic anhydrase 1 is more than 100 µM; at Carbonic anhydrase 2, more than 100 µM; at Carbonic anhydrase 9, 45 µM; at Carbonic anhydrase 12, more than 100 µM.
Take `CCn1cc(S(N)(=O)=O)c2cc(NC(=O)c3cc(Cl)nc(Br)c3)ccc21`: the Ki on Carbonic anhydrase 1 is more than 100 µM; at Carbonic anhydrase 9, 8.78 µM.
With `CCn1cc(S(N)(=O)=O)c2cc(NC(=O)c3cc(-c4ccccc4C)nc4ccc(OC)cc34)ccc21`, the values for the Ki at Carbonic anhydrase 1 and at Carbonic anhydrase 9 were more than 100 µM and 8.65 µM, respectively.
`CCn1cc(S(N)(=O)=O)c2cc(NC(=O)c3cc(-c4ccccc4OC)nc4ccc(OC)cc34)ccc21`: the Ki is more than 100 µM at Carbonic anhydrase 1, more than 100 µM on Carbonic anhydrase 2, 26.7 µM at Carbonic anhydrase 9 and more than 100 µM on Carbonic anhydrase 12.
Turning to `CCn1cc(S(N)(=O)=O)c2cc(NC(=O)c3cc(-c4ccc5c(c4)OCO5)nc4ccccc34)ccc21`, the Ki at Carbonic anhydrase 1 is more than 100 µM; at Carbonic anhydrase 9 it was 7.51 µM.
As for `CCn1cc(S(N)(=O)=O)c2cc(NC(=O)c3cc(-c4ccc(OC)cc4OC)nc4ccc(OC)cc34)ccc21`, the results for the Ki at Carbonic anhydrase 1, on Carbonic anhydrase 9 and on Carbonic anhydrase 12 were more than 100 µM, 59.5 µM and more than 100 µM, respectively.
Take `CCn1cc(S(N)(=O)=O)c2cc(NC(=O)c3ccncc3)ccc21`: the Ki on Carbonic anhydrase 1 is more than 100 µM; at Carbonic anhydrase 2, more than 100 µM; on Carbonic anhydrase 9 it was 21.6 µM; on Carbonic anhydrase 12, more than 100 µM.
Regarding `Cn1cc(S(N)(=O)=O)c2cc(NC(=O)c3ccnc(Cl)c3)ccc21`, the Ki is more than 100 µM on Carbonic anhydrase 1, more than 100 µM at Carbonic anhydrase 2 and 5.93 µM on Carbonic anhydrase 9.
For the compound `CCn1cc(S(N)(=O)=O)c2cc(NC(=O)c3cc(-c4cc(Cl)cc(Cl)c4)nc4ccc(OC)cc34)ccc21`, the Ki at Carbonic anhydrase 1 is more than 100 µM; at Carbonic anhydrase 9, 4.23 µM.
As for `CCn1cc(S(N)(=O)=O)c2cc(NC(=O)c3cc(-c4ccc(Cl)cc4Cl)nc4ccccc34)ccc21`, the figures for the Ki on Carbonic anhydrase 1 and on Carbonic anhydrase 9 were more than 100 µM and 1.47 µM, respectively.
With `COc1ccc(-c2cc(C(=O)Nc3ccc4c(c3)c(S(N)(=O)=O)cn4C)c3ccccc3n2)cc1OC`, the Ki at Carbonic anhydrase 1 is more than 100 µM; on Carbonic anhydrase 2 it was more than 100 µM; at Carbonic anhydrase 9 it was 69.3 µM; at Carbonic anhydrase 12, more than 100 µM.
For the compound `CCn1cc(S(N)(=O)=O)c2cc(NC(=O)c3ccnc(Br)c3)ccc21`, the Ki is more than 100 µM at Carbonic anhydrase 1 and 8.21 µM at Carbonic anhydrase 9.
As to `Cn1cc(S(N)(=O)=O)c2cc(NC(=O)c3ccnc(O)c3)ccc21`, the values for the Ki at Carbonic anhydrase 1, at Carbonic anhydrase 2 and at Carbonic anhydrase 9 were more than 100 µM, more than 100 µM and 9.05 µM, respectively.
On to `COc1ccc2nc(-c3ccccc3C)cc(C(=O)Nc3ccc4c(c3)c(S(N)(=O)=O)cn4C)c2c1`, for which the Ki was more than 100 µM at Carbonic anhydrase 1, 16.3 µM on Carbonic anhydrase 9 and more than 100 µM on Carbonic anhydrase 12.
